Reference: patent US5980913A, “Peptides having immunomodulatory activity” (Biochem Pharma, Inc., priority 1994, dated 1999)
Where a SMILES comes first, the peptide text is derived from it. [ ]: non-standard residue; d: D form.

Experiments:
[1] = tested on: blood cell subsets (cell surface antigens); assay: In vivo/ex vivo immunophenotyping in the blood, mice treated 4 consecutive days, blood taken on day 5; design: species or system C57BL/6 mice
Procedure: C57BL.backslash.6 mice are treated with 0, 50, 100, 200, and 300 mg/kg of drug (in saline) for 4 consecutive days. Blood is taken by cardiac puncture on day 5, and the lymphocytes are isolated from spleen in the following manner:
1. Immunophenotyping (blood and spleen)
Cell immunophenotyping is performed on blood and spleen. The following cell surface antigens are analyzed:
CD4 (T helper/inducer, binds class II-restricted T cells);
CD8 (cytotoxic T cells, CTL adhesion);
MAC-1 (monocyte/macrophage);
NK (natural killer cells);
CD45 (all leukocytes, protein tyrosine phosphatase).

Toxicity in vivo = assay: Toxicity in vivo
Text: peptide #1 (SEQ. ID NO:1) appears to be non-toxic.

[2] = Stability in Human Whole Blood at 37° C., HPLC; type: in vitro ADME; design: half-life: dose or concentration left out as unconfirmed; details: for HPLC AREA: human whole blood 37° C.
Procedure: The procedures are the same as example 5 with the exceptions that human whole blood was substituted for rat whole blood, and that in Step 2, (blood incubation) aliquotes were taken at the following times: […]

HPLC AREA ([2]; 0 min): 2857082.5
HPLC AREA ([2]; 15 min): 3066465
HPLC AREA ([2]; 30 min): 3017509.5
HPLC AREA ([2]; 60 min): 3135696.5
HPLC AREA ([2]; 90 min): 3005211
HPLC AREA ([2]; 120 min): 3476665.5
HPLC AREA ([2]; 150 min): 3063052
HPLC AREA ([2]; 180 min): 3108157
HPLC AREA ([2]; 210 min): 3181899
half-life ([2]; human, human whole blood, 37° C.): > 3.5 h
Structure (SMILES): NCCCC[C@@H](N)C(=O)N[C@@H](CC(N)=O)C(=O)N1CCC[C@H]1C(=O)N[C@@H](Cc1ccc(O)cc1)C(=O)O [PEPTIDE #5, H-(D-Lys)-Asn-Pro-Tyr-OH] (H-[dK]NPY-OH)
CD4- CD11b+ cell subset, relative percentage, MEAN ([1]; 100 mg/kg, second assay): 10.28
CD4- CD11b- cell subset, relative percentage, MEAN ([1]; 100 mg/kg, second assay): 67.65
CD45+ CD4+ cell subset, relative percentage, MEAN ([1]; 100 mg/kg, second assay): 22.70
CD45+ CD4- cell subset, relative percentage, MEAN ([1]; 100 mg/kg, second assay): 68.45
CD45+ CD8+ cell subset, relative percentage, MEAN ([1]; 100 mg/kg, second assay): 7.05
CD45+ CD8- cell subset, relative percentage, MEAN ([1]; 100 mg/kg, second assay): 85.00
CD45- CD4+ cell subset, relative percentage, MEAN ([1]; 100 mg/kg, second assay): 2.23
CD45- CD4- cell subset, relative percentage, MEAN ([1]; 100 mg/kg, second assay): 6.63
CD45- CD8+ cell subset, relative percentage, MEAN ([1]; 100 mg/kg, second assay): 0.10
CD45- CD8- cell subset, relative percentage, MEAN ([1]; 100 mg/kg, second assay): 7.83
Ly5(B) cell subset, relative percentage, MEAN ([1]; 100 mg/kg, second assay): 56.10
NK+ CD3+ cell subset, relative percentage, MEAN ([1]; 100 mg/kg, second assay): 4.68
NK+ CD3- cell subset, relative percentage, MEAN ([1]; 100 mg/kg, second assay): 7.58
NK- CD3+ cell subset, relative percentage, MEAN ([1]; 100 mg/kg, second assay): 36.30
NK- CD3- cell subset, relative percentage, MEAN ([1]; 100 mg/kg, second assay): 51.43
TCR(T) cell subset, relative percentage, MEAN ([1]; 100 mg/kg, second assay): 37.50
CD4+ CD8+ cell subset, relative percentage, MEAN ([1]; 200 mg/kg, first assay): 1.90
CD4+ CD8- cell subset, relative percentage, MEAN ([1]; 200 mg/kg, first assay): 19.00
CD4+ CD11b+ cell subset, relative percentage, MEAN ([1]; 200 mg/kg, first assay): 0.85
CD4+ CD11b- cell subset, relative percentage, MEAN ([1]; 200 mg/kg, first assay): 18.98
CD4- CD8+ cell subset, relative percentage, MEAN ([1]; 200 mg/kg, first assay): 4.68
CD4- CD8- cell subset, relative percentage, MEAN ([1]; 200 mg/kg, first assay): 74.40
CD4- CD11b+ cell subset, relative percentage, MEAN ([1]; 200 mg/kg, first assay): 7.78
CD4- CD11b- cell subset, relative percentage, MEAN ([1]; 200 mg/kg, first assay): 72.45
CD45+ CD4+ cell subset, relative percentage, MEAN ([1]; 200 mg/kg, first assay): 17.45
CD45+ CD4- cell subset, relative percentage, MEAN ([1]; 200 mg/kg, first assay): 57.70
CD45+ CD8+ cell subset, relative percentage, MEAN ([1]; 200 mg/kg, first assay): 6.15
CD45+ CD8- cell subset, relative percentage, MEAN ([1]; 200 mg/kg, first assay): 64.30
CD45- CD4+ cell subset, relative percentage, MEAN ([1]; 200 mg/kg, first assay): 3.48
CD45- CD4- cell subset, relative percentage, MEAN ([1]; 200 mg/kg, first assay): 21.35
CD45- CD8- cell subset, relative percentage, MEAN ([1]; 200 mg/kg, first assay): 29.08
CD45- CDE8+ cell subset, relative percentage, MEAN ([1]; 200 mg/kg, first assay): 0.48
Ly5(B) cell subset, relative percentage, MEAN ([1]; 200 mg/kg, first assay): 65.60
NK+ CD3+ cell subset, relative percentage, MEAN ([1]; 200 mg/kg, first assay): 1.93
NK+ CD3- cell subset, relative percentage, MEAN ([1]; 200 mg/kg, first assay): 5.73
NK- CD3+ cell subset, relative percentage, MEAN ([1]; 200 mg/kg, first assay): 33.03
NK- CD3- cell subset, relative percentage, MEAN ([1]; 200 mg/kg, first assay): 59.33
TCR(T) cell subset, relative percentage, MEAN ([1]; 200 mg/kg, first assay): 32.18
CD4+ CD8+ cell subset, relative percentage, MEAN ([1]; 200 mg/kg, second assay): 0.30
CD4+ CD8- cell subset, relative percentage, MEAN ([1]; 200 mg/kg, second assay): 23.13
CD4+ CD11b+ cell subset, relative percentage, MEAN ([1]; 200 mg/kg, second assay): 0.13
CD4+ CD11b- cell subset, relative percentage, MEAN ([1]; 200 mg/kg, second assay): 15.40
CD4- CD8+ cell subset, relative percentage, MEAN ([1]; 200 mg/kg, second assay): 7.58
CD4- CD8- cell subset, relative percentage, MEAN ([1]; 200 mg/kg, second assay): 69.03
CD4- CD11b+ cell subset, relative percentage, MEAN ([1]; 200 mg/kg, second assay): 5.20
CD4- CD11b- cell subset, relative percentage, MEAN ([1]; 200 mg/kg, second assay): 79.30
CD45+ CD4+ cell subset, relative percentage, MEAN ([1]; 200 mg/kg, second assay): 20.85
CD45+ CD4- cell subset, relative percentage, MEAN ([1]; 200 mg/kg, second assay): 71.95
CD45+ CD8+ cell subset, relative percentage, MEAN ([1]; 200 mg/kg, second assay): 7.83
CD45+ CD8- cell subset, relative percentage, MEAN ([1]; 200 mg/kg, second assay): 85.60
CD45- CD4+ cell subset, relative percentage, MEAN ([1]; 200 mg/kg, second assay): 2.23
CD45- CD4- cell subset, relative percentage, MEAN ([1]; 200 mg/kg, second assay): 5.00
CD45- CD8+ cell subset, relative percentage, MEAN ([1]; 200 mg/kg, second assay): 0.05
CD45- CD8- cell subset, relative percentage, MEAN ([1]; 200 mg/kg, second assay): 6.53
Ly5(B) cell subset, relative percentage, MEAN ([1]; 200 mg/kg, second assay): 65.63
NK+ CD3+ cell subset, relative percentage, MEAN ([1]; 200 mg/kg, second assay): 2.90
NK+ CD3- cell subset, relative percentage, MEAN ([1]; 200 mg/kg, second assay): 6.83
NK- CD3+ cell subset, relative percentage, MEAN ([1]; 200 mg/kg, second assay): 32.30
NK- CD3- cell subset, relative percentage, MEAN ([1]; 200 mg/kg, second assay): 58.03
TCR(T) cell subset, relative percentage, MEAN ([1]; 200 mg/kg, second assay): 35.80
CD4- CD8-, figure printed with the significant increase of B cells ([1]; all tested doses): 73%
Ly5, figure printed with the significant increase of B cells ([1]; all tested doses): 80%
change of B cells (in words) ([1]; all tested doses): significant increase
gross pathological observations (in words) (Toxicity in vivo; in vivo): no sign of irritation
toxic effect (in words) (Toxicity in vivo; up to 200 mg/kg): No toxic effect
